According to US11866414B2, “Substituted heterocyclic compounds” (BRISTOL-MYERS SQUIBB COMPANY, priority 2021, dated 2024):
Where two headings read alike, the source gives them in different places. Marks after values point to notes of the source that are not given here.

Assays:
[1] = Bidirectional permeability assay in Caco-2 cells; conditions: human, Caco-2, pH 7.4
Caco-2 cells [2] = conditions: human, Caco-2, 2 h, 3 μM, pH 7.4
[3] = Brain penetration in vivo assay (brain and plasma exposure); design: species or system mouse
[4] = system: IFNα-induced STAT phosphorylation (pSTAT5); assay: IFNα-induced STAT phosphorylation in human whole blood; format: cell-based; conditions: 1 h compound, 1000 U/mL IFNα A/D 15 min, CD3 positive population, read-out: Human Whole blood IFNa pSTAT5 IC50
in vitro = conditions: human, Caco-2, pH 7.4
[5] = Brain penetration in vivo assay (brain and plasma exposure)
Procedure: Brain Penetration In Vivo Assay
A pharmacokinetic study was performed using C57BL6 wild-type mice (n=3 per experiment) to determine brain and plasma exposure of compounds of the invention. The compound was administered orally in a solution of 5% ETHANOL: 90% PEG 300; 5% TPGS at 5 mL/kg for a final concentration of 10 mg/kg. Nice were euthanized 1 hour post-dose and plasma and brain were collected and frozen for analysis. Brain tissues were homogenized in a 1:1 volume of blank C57BL6 mouse plasma. Concentrations of the compound in plasma and brain homogenate were determined by LC-MS analysis.

Caco-2 cells [6] = assay: Bidirectional permeability assay in Caco-2 cells; conditions: for Efflux Ratio: Caco-2, 3 μM, pH 7.4, 2 hours; for CACO2 (A-B): permeability coefficient apical-to-basolateral, 3 μM, pH 7.4, 0.5% BSA, 2 hours, 37° C.

SMILES: C[C@H]1O[C@@H](O[C@H]2[C@@H](O)C[C@H](O[C@H]3[C@@H](O)C[C@H](O[C@H]4CC[C@@]5(C)[C@H](CC[C@@H]6[C@@H]5C[C@@H](O)[C@]5(C)[C@@H](C7=CC(=O)OC7)CC[C@]65O)C4)O[C@@H]3C)O[C@@H]2C)C[C@H](O)[C@@H]1O [Digoxin, reference compound]
- Papp A→B at 2 h, 3 μM [1]: 18 ± 7 nm/s
- Papp B→A at 2 h, 3 μM [1]: 265 ± 74 nm/s
- efflux ratio at 2 h, 3 μM [1]: 14.7

SMILES: [2H]C([2H])([2H])NC(=O)c1nnc(NC(=O)C2CC2)cc1Nc1cccc(-c2cnn(CCF)n2)c1OC [Example 2, 6-cyclopropaneamido-4-({3-[2-(2-fluoroethyl)-2H-1,2,3-triazol-4-yl]-2-methoxyphenyl}amino)-N—(^2H3)methylpyridazine-3-carboxamide]
- CACO2 (A-B) (Caco-2 cells [2]): 427 nm/s
- Ratio of exposure in brain to plasma (mouse) ([3]; footnote *: 2 mpk iv solution dose): 0.1*

SMILES: [2H]C([2H])([2H])NC(=O)c1nnc(NC(=O)OC)cc1Nc1cccc(-c2cnn(C)n2)c1OC [Example 7, methyl N-(5-{[2-methoxy-3-(2-methyl-2H-1,2,3-triazol-4-yl)phenyl]amino}-6-[(^2H3)methylcarbamoyl]pyridazin-3-yl)carbamate]
- IC50 [4]: 0.39 µM
- Kp at 40 min ([3]; C57BL6, mouse, brain / plasma, 2 mg/kg, footnote **: 2 mpk iv solution dose, exposures measured at 40 minutes, read-out: Ratio of exposure in brain to plasma (mouse)): 0.5
- Papp A→B at 2 h, 3 μM (in vitro): 416 nm/s
- efflux ratio at 2 h, 3 μM (in vitro): 0.4

SMILES: [2H]C([2H])([2H])NC(=O)c1nnc(NC(=O)[C@@H]2CC23CC3)cc1Nc1cccc(-c2cnn(C)n2)c1OC [Example 13, 4-{[2-methoxy-3-(2-methyl-2H-1,2,3-triazol-4-yl)phenyl]amino}-N—(^2H3)methyl-6-[(1R)-spiro[2.2]pentane-1-amido]pyridazine-3-carboxamide]
- Ratio of exposure in brain to plasma (mouse) (1 h, 10 mpk, po) [5]: 0.4
- Efflux Ratio (Caco-2 cells [6]): 0.7
- CACO2 (A-B) (Caco-2 cells [6]): 251 nm/s

SMILES: [2H]C([2H])([2H])NC(=O)c1nnc(NC(=O)C2CC2)cc1Nc1cc(C)cc(-c2cnn(C)n2)c1OC [Example 17, 6-cyclopropaneamido-4-{[2-methoxy-5-methyl-3-(2-methyl-2H-1,2,3-triazol-4-yl)phenyl]amino}-N—(^2H3)methylpyridazine-3-carboxamide]
- CACO2 (A-B) (Caco-2 cells [2]): 282 nm/s
- Ratio of exposure in brain to plasma (mouse) (1 h, 10 mpk, po) ([3]; footnote ***: nanosupension in 0.5% methocel A4M, 0.1% tween 80, 99.4% water): 0.2***

SMILES: [2H]C([2H])([2H])NC(=O)c1nnc(NC(=O)N2CCC2)cc1Nc1cccc(-c2cnn(C)n2)c1OC [Example 51, 6-[(azetidine-1-carbonyl)amino]-4-{[2-methoxy-3-(2-methyl-2H-1,2,3-triazol-4-yl)phenyl]amino}-N—(^2H3)methylpyridazine-3-carboxamide]
- Efflux Ratio (Caco-2 cells [6]): 0.9
- CACO2 (A-B) (Caco-2 cells [6]): 429 nm/s

SMILES: [2H]C([2H])([2H])NC(=O)c1nnc(NC(=O)C2CC2)cc1Nc1cccc(-c2cnn(C3COC3)n2)c1OC [Example 53, 6-cyclopropaneamido-4-({2-methoxy-3-[2-(oxetan-3-yl)-2H-1,2,3-triazol-4-yl]phenyl}amino)-N—(^2H3)methylpyridazine-3-carboxamide]
- Efflux Ratio (Caco-2 cells [6]): 0.7
- CACO2 (A-B) (Caco-2 cells [6]): 425 nm/s

SMILES: [2H]C([2H])([2H])NC(=O)c1nnc(NC(=O)N(C)CC)cc1Nc1nccc(-c2cnn(C)n2)c1OC [Example 58, 6-{[ethyl(methyl)carbamoyl]amino}-4-{[3-methoxy-4-(2-methyl-2H-1,2,3-triazol-4-yl)pyridin-2-yl]amino}-N—(^2H3)methylpyridazine-3-carboxamide]
- Efflux Ratio (Caco-2 cells [6]): 0.6
- CACO2 (A-B) (Caco-2 cells [6]): 314 nm/s

SMILES: [2H]C([2H])([2H])NC(=O)c1nnc(NC(=O)N(C)C(C)C)cc1Nc1nccc(-c2cnn(C)n2)c1OC [Example 59, 4-{[3-methoxy-4-(2-methyl-2H-1,2,3-triazol-4-yl)pyridin-2-yl]amino}-N—(^2H3)methyl-6-{[methyl(propan-2-yl)carbamoyl]amino}pyridazine-3-carboxamide]
- Efflux Ratio (Caco-2 cells [6]): 0.8
- CACO2 (A-B) (Caco-2 cells [6]): 351 nm/s

SMILES: [2H]C([2H])([2H])NC(=O)c1nnc(NC(=O)C2CC2)cc1Nc1nc(F)cc(-c2cnn(C)n2)c1OC [Example 62, 6-(Cyclopropanecarboxamido)-4-((6-fluoro-3-methoxy-4-(2-methyl-2H-1,2,3-triazol-4-yl)pyridin-2-yl)amino)-N-(methyl-d3)pyridazine-3-carboxamide]
- IC50 [4]: 0.12 µM
- Kp at 1.5 h ([3]; C57BL6, mouse, brain / plasma, 2 mg/kg, footnote *****: 2 mpk iv solution dose, exposures measured at 90 minutes, read-out: Ratio of exposure in brain to plasma (mouse)): 0.6
- Papp A→B at 2 h, 3 μM (in vitro): 432 nm/s
- efflux ratio at 2 h, 3 μM (in vitro): 0.4
